These results are taken from US20220125051A1, “PRE-HARVEST DESICCATION METHOD” (SYNGENTA CROP PROTECTION AG, priority 2019, published 2022).

Holding throughout (experiment): Post-emergence efficacy, Method A
Holding throughout (format): in vivo

The test system of one assay is Lolium perenne (LOLPE). To be noted: Lolium perenne, post-emergence, 312 h, evaluated after 13 days. The procedure: (§1) Seeds of a variety of test species were sown in standard soil in pots. After cultivation for 14 days (post-emergence) under controlled conditions in a glasshouse (at 24/16° C., day/night; 14 hours light; 65% humidity), the plants were sprayed with an aqueous spray solution derived from the dissolution of the technical active ingredient formula (I) in a small amount of acetone and a special solvent and emulsifier mixture referred to as IF50 (11.12% Emulsogen EL360 TM+44.44% N-methylpyrrolidone+44.44% Dowanol DPM glycol ether), to create a 50 g/I solution which was then diluted to required concentration using 0.25% or 1% Empicol ESC70 (Sodium lauryl ether sulphate)+1% ammonium sulphate as diluent. The test plants were then grown in a glasshouse under controlled conditions (at 24/16° C., day/night; 14 hours light; 65% humidity) and watered twice daily. After 13 days the test was evaluated (100=total damage to plant; 0=no damage to plant).
(§2) Ipomoea hederacea (IPOHE), Euphorbia heterophylla (EPHHL), Chenopodium album (CHEAL), Amaranthus palmeri (AMAPA), Lolium perenne (LOLPE), Digitaria sanguinalis (DIGSA), Eleusine indica (ELEIN), Echinochloa crus-galli (ECHCG), Setaria faberi (SETFA)

Another assay deals with Eleusine indica (ELEIN). Particulars: Eleusine indica, post-emergence, 312 h; Application Rate 500 g/Ha; evaluated after 13 days; Method A; read-out: Control of weed species after post-emergence application, ELEIN (100=total damage to plant; 0=no damage to plant). The procedure:
as §1, §2

Assay [1] relates to Chenopodium album (CHEAL). Particulars: Chenopodium album, post-emergence, 312 h; Application Rate 500 g/Ha; evaluated after 13 days; Method A; read-out: Control of weed species after post-emergence application, CHEAL (100=total damage to plant; 0=no damage to plant). The procedure:
as §1, §2

Assay [2] concerns Ipomoea hederacea (IPOHE). Particulars: Ipomoea hederacea, post-emergence, 312 h, Application Rate 500 g/Ha; evaluated after 13 days; Method A; read-out: Control of weed species after post-emergence application, IPOHE (100=total damage to plant; 0=no damage to plant). As to the method:
as §1, §2

Assay [3] relates to Amaranthus palmeri (AMAPA). To be noted: Amaranthus palmeri, post-emergence, 312 h; Application Rate 500 g/Ha; evaluated after 13 days; Method A; read-out: Control of weed species after post-emergence application, AMAPA (100=total damage to plant; 0=no damage to plant). The procedure: as §1, §2
Assay [4] relates to Echinochloa crus-galli (ECHCG). To be noted: Echinochloa crus-galli, post-emergence, 312 h; Application Rate 500 g/Ha; evaluated after 13 days; Method A; read-out: Control of weed species after post-emergence application, ECHCG (100=total damage to plant; 0=no damage to plant). As to the method:
as §1, §2

For assay [5], the system named is Digitaria sanguinalis (DIGSA). To be noted: Digitaria sanguinalis, post-emergence, 312 h; Application Rate 500 g/Ha; evaluated after 13 days; Method A; read-out: Control of weed species after post-emergence application, DIGSA (100=total damage to plant; 0=no damage to plant). The procedure: as §1, §2
The next assay has as its system Setaria faberi (SETFA). To be noted: Setaria faberi, post-emergence, 312 h; Application Rate 500 g/Ha; evaluated after 13 days; Method A; read-out: Control of weed species after post-emergence application, SETFA (100=total damage to plant; 0=no damage to plant). The procedure:
as §1, §2

The mark [6] stands for this setting: Application Rate 500 g/Ha, Method A, read-out: Control of weed species after post-emergence application, LOLPE (100=total damage to plant; 0=no damage to plant).

Where two headings read alike, the source gives them in different places.

Consider `O=C(O)CC[n+]1ccc(-c2ncccn2)cn1` [Compound A125, 3-(4-pyrimidin-2-ylpyridazin-1-ium-1-yl)propanoic acid 2,2,2-trifluoroacetate], for which the pest or weed control at 500 g/ha in the assay on Lolium perenne (LOLPE) (Application rate 500 g/Ha, 100=total damage to plant, 0=no damage to plant, read-out: Control of weed species after post-emergence application, LOLPE) is 90%.

On to `N#Cc1ccc(-c2cc[n+](CCS(=O)(=O)[O-])nc2)nc1` [Compound A169], for which the pest or weed control at 500 g/ha in the assay on Eleusine indica (ELEIN) was found to be 90%; in assay [1] it was 70%; in assay [2] it was 40%; in assay [3], 100%; in assay [4] it was 40%; with Lolium perenne (LOLPE) (setting [6]), 50%. Besides, the pest or weed control at 500 g/ha (in assay [5]; with Setaria faberi (SETFA)) was 50% in each case.

As for `CC(C[n+]1ccc(-c2ccncn2)cn1)C(=O)O` (centres unmarked) [Compound A171], the pest or weed control at 500 g/ha in the assay on Eleusine indica (ELEIN) stood at 80%; in assay [1], 80%; in assay [2], 80%; in assay [3] it was 100%; in assay [4] it was 60%; in the assay with Lolium perenne (LOLPE) (setting [6]), 70%. Moreover, the pest or weed control at 500 g/ha (in assay [5]; in the assay with Setaria faberi (SETFA)) was 60% each time.

As to `N#Cc1ccc(-c2cc[n+](CCC(=O)O)nc2)nc1` [Compound A176], the pest or weed control at 500 g/ha with Eleusine indica (ELEIN) stood at 70%; in assay [1], 30%; in assay [2] it was 40%; in assay [3] it was 40%; in assay [4], 30%; with Lolium perenne (LOLPE) (setting [6]) it was 40%. In addition, the pest or weed control at 500 g/ha came to 30% in assay [5] and 40% in the assay on Setaria faberi (SETFA).

In the case of `CC(CS(=O)(=O)[O-])[n+]1ccc(-c2ncccn2)cn1` (centres unmarked) [Compound A181, 2-(4-pyrimidin-2-ylpyridazin-1-ium-1-yl)propane-1-sulfonate], the pest or weed control at 500 g/ha in the assay on Eleusine indica (ELEIN) came to 100%; in assay [1] it was 90%; in assay [2] it was 80%; in assay [3] it was 90%; in assay [4], 100%; in the assay with Lolium perenne (LOLPE) (setting [6]), 90%. Further, the pest or weed control at 500 g/ha is 80% in assay [5] and 60% in the assay with Setaria faberi (SETFA).

Turning to `NC(=O)c1ccc(-c2cc[n+](CCCS(=O)(=O)[O-])nc2)nc1` [Compound A183], the pest or weed control at 500 g/ha in the assay with Eleusine indica (ELEIN) was determined as 10%; in assay [1], 0%; in assay [2], 20%; in assay [3], 10%; in assay [4], 20%; with Lolium perenne (LOLPE) (setting [6]), 10%. For the same compound, the figures for the pest or weed control at 500 g/ha (in assay [5]; in the assay on Setaria faberi (SETFA)) were 30% and 10%, respectively.

As for `CC(CC[n+]1ccc(-c2ncccn2)cn1)S(=O)(=O)[O-]` (centres unmarked) [Compound A185], the pest or weed control at 500 g/ha in the assay with Eleusine indica (ELEIN) came out at 30%; in assay [1] it was 80%; in assay [2] it was 30%; in assay [3] it was 100%; in assay [4], 40%; with Lolium perenne (LOLPE) (setting [6]), 30%. Moreover, the values for the pest or weed control at 500 g/ha (in assay [5]; with Setaria faberi (SETFA)) were 30% and 50%, respectively.

As for `OCC[n+]1ccc(-c2ncccn2)cn1` [Compound A195, 2-(4-pyrimidin-2-ylpyridazin-1-ium-1-yl)ethanol 2,2,2-trifluoroacetate], the pest or weed control at 500 g/ha amounted to 10% in the assay on Eleusine indica (ELEIN); 60% in assay [1]; 20% in assay [2]; 10% in assay [4]; 0% with Lolium perenne (LOLPE) (setting [6]); 20% in assay [5].

With `Cc1ccc(-c2cc[n+](CCC(=O)O)nc2)nc1` [Compound A199], the pest or weed control at 500 g/ha turned out to be 10% in the assay on Eleusine indica (ELEIN); 40% in assay [1]; 10% in assay [2]; 20% in assay [4]; 0% in the assay on Lolium perenne (LOLPE) (setting [6]); 50% in assay [5]. Further, the pest or weed control at 500 g/ha with Setaria faberi (SETFA) stood at 30%.

For `O=P([O-])(O)C[n+]1ccc(-c2ncccn2)cn1` [Compound A205, hydroxy-[(4-pyrimidin-2-ylpyridazin-1-ium-1-yl)methyl]phosphinate], the pest or weed control at 500 g/ha with Eleusine indica (ELEIN) stood at 60%; in assay [1] it was 60%; in assay [2], 80%; in assay [3], 80%; in assay [4] it was 60%; in the assay with Lolium perenne (LOLPE) (setting [6]), 40%. Besides, the pest or weed control at 500 g/ha (in assay [5]; with Setaria faberi (SETFA)) was 80% in each case.

Consider `O=S(=O)([O-])N1CCCC1C[n+]1ccc(-c2ncccn2)cn1` (centres unmarked) [Compound A222], for which the pest or weed control at 500 g/ha with Eleusine indica (ELEIN) was found to be 60%; in assay [1], 60%; in assay [2] it was 70%; in assay [3] it was 80%; in assay [4], 70%; with Lolium perenne (LOLPE) (setting [6]), 20%. Besides, the pest or weed control at 500 g/ha turned out to be 90% in assay [5] and 80% in the assay on Setaria faberi (SETFA).

On to `O=S(=O)([O-])CC(O)C[n+]1ccc(-c2ccncn2)cn1` (centres unmarked) [Compound A224], for which the pest or weed control at 500 g/ha in the assay with Eleusine indica (ELEIN) came to 80%; in assay [1], 90%; in assay [2], 80%; in assay [3], 100%; in assay [4], 40%; in the assay on Lolium perenne (LOLPE) (setting [6]) it was 40%. For the same compound, the figures for the pest or weed control at 500 g/ha (in assay [5]; with Setaria faberi (SETFA)) were 80% and 40%, respectively.

Regarding `O=C(O)c1ccc(C[n+]2ccc(-c3ncccn3)cn2)cc1` [Compound A228], the pest or weed control at 500 g/ha came out at 10% in the assay on Eleusine indica (ELEIN); 60% in assay [1]; 60% in assay [2]; 80% in assay [3]; 10% in assay [4]; 0% in the assay with Lolium perenne (LOLPE) (setting [6]). For the same compound, the pest or weed control at 500 g/ha in assay [5] came out at 20%; in the assay on Setaria faberi (SETFA), 10%.

Regarding `COC(=O)c1ccc(C[n+]2ccc(-c3ncccn3)cn2)cc1` [Compound A229], the pest or weed control at 500 g/ha was 0% in the assay with Eleusine indica (ELEIN); 0% in assay [1]; 10% in assay [2]; 10% in assay [3]; 0% in assay [4]; 0% in the assay with Lolium perenne (LOLPE) (setting [6]). Besides, the pest or weed control at 500 g/ha in assay [5] was determined as 20%; in the assay with Setaria faberi (SETFA) it was 10%.

Turning to `CCOP(=O)(C[n+]1ccc(-c2ncccn2)cn1)OCC` [Compound A230, 1-(diethoxyphosphorylmethyl)-4-pyrimidin-2-yl-pyridazin-1-ium 2,2,2-trifluoroacetate], the pest or weed control at 500 g/ha stood at 10% in the assay on Eleusine indica (ELEIN); 60% in assay [1]; 20% in assay [2]; 50% in assay [3]; 60% in assay [4]; 0% in the assay on Lolium perenne (LOLPE) (setting [6]). Moreover, the values for the pest or weed control at 500 g/ha (in assay [5]; with Setaria faberi (SETFA)) were 70% and 50%, respectively.
